# Data taken from paper PMC3535830 (Bioorganic & medicinal chemistry letters, 2012).
# Where two headings read alike, the source gives them in different places.
# Legend:
# [1] = biological target: T1, human M4 receptor (Homo sapiens, UniProt P08173); assay: human M4 positive allosteric modulator potency assay; format: cell-based; details: human M4 PAM; mean of at least 3 experiments
# T1 sequence (P08173 1-479): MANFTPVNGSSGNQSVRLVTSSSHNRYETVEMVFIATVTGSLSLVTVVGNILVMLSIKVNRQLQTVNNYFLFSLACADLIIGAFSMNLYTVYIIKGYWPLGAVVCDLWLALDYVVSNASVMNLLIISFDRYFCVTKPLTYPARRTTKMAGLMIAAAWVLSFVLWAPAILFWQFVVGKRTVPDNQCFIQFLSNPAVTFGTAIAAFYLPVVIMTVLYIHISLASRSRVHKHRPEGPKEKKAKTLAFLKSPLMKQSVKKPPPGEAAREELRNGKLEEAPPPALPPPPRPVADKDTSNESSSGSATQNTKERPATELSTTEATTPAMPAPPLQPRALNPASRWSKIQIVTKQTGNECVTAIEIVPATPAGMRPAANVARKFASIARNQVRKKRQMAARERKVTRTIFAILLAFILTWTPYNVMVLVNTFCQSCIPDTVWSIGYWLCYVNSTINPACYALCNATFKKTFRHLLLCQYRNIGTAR
# [2] = in vitro PK: predicted hepatic clearance, human; format: in vitro ADME
# [3] = in vitro PK: predicted hepatic clearance, rat; format: in vitro ADME; details: for predicted clearance in the rat (CLHEP), in words: in vitro PK prediction; for rCLHEP: in vitro predicted hepatic clearance
# [4] = rat equilibrium dialysis plasma protein binding; format: in vitro ADME; details: fraction unbound
# [5] = biological target: T2, hM2 (Homo sapiens, UniProt P08172); assay: muscarinic selectivity hM2; format: cell-based
# T2 sequence (P08172 1-466): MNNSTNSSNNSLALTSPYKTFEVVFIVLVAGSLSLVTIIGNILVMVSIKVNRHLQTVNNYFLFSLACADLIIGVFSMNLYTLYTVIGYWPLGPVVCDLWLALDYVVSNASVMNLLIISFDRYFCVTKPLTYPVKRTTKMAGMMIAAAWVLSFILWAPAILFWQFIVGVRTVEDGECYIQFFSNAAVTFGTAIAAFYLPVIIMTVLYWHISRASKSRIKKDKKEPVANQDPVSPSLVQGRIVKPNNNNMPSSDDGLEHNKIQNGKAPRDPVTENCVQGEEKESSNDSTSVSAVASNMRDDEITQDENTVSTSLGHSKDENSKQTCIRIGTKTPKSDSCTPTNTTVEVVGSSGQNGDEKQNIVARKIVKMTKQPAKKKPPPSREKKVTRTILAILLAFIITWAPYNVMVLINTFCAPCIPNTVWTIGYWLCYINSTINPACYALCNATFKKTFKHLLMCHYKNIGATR
# [6] = biological target: T3, rM2 (Rattus norvegicus, UniProt P10980); assay: muscarinic selectivity rM2; format: cell-based
# T3 sequence (P10980 1-466): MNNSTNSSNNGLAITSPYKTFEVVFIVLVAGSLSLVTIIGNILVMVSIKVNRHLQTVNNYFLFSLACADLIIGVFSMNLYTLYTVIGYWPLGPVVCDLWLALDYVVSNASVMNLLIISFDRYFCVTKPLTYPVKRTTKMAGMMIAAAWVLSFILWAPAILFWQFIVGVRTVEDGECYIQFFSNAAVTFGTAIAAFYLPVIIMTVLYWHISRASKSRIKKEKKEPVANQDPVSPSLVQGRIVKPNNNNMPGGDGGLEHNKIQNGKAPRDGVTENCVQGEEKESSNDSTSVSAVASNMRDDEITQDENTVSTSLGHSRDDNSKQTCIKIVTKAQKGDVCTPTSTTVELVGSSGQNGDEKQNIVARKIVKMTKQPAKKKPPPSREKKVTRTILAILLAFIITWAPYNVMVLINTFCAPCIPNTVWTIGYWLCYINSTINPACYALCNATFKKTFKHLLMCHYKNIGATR
# [7] = test system: other four mAChR subtypes (M1, M2, M3, M5); assay: selectivity against the other four mAChR subtypes; format: cell-based; details: read-out: activity against all four other mAChR subtypes
# [8] = biological target: T1, human M4 receptor; details: cited from earlier work
# [9] = biological target: T4, rat M4 receptor (Rattus norvegicus, UniProt P08485); details: read-out: rat M4 potency; cited from earlier work
# T4 sequence (P08485 1-478): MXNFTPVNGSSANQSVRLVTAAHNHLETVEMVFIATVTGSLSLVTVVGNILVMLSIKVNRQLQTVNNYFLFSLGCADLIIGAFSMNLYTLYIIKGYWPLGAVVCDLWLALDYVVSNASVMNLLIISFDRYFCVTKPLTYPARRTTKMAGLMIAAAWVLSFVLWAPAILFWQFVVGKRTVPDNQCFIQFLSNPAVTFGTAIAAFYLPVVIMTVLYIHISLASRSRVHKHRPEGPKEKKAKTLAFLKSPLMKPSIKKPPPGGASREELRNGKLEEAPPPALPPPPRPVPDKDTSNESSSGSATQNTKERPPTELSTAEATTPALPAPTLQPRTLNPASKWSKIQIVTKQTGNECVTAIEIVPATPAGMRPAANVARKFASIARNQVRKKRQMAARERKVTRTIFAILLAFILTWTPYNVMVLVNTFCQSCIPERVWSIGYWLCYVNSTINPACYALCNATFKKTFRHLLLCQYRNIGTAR
Compound,pEC50 ± SEM [1],other results
Cc1nc2sc(C(=O)NCc3cccc(F)c3F)c(N)c2c(C)c1Cl [Compound 2],6.91 ± 0.05,
Cc1nc2sc(C(=O)NC3CC3)c(N)c2c(C)c1Cl [Compound 3],7.11 ± 0.32,"hCLHEP [2]: 13.9 mL/min/kg; predicted clearance in the rat (CLHEP), in words [3]: high clearance; rCLHEP [3]: 51.0 mL/min/kg; rPPB (%fu) [4]: ~ 2%; EC50 [5]: ~600 nM; EC50 [6]: ~600 nM"
"Cc1nc2sc(C(=O)NCc3ccncc3)c(N)c2c(C)c1Cl [Compound 4, 3-amino-5-chloro-4,6-dimethyl-N-(pyridinyl-4-methyl)thieno[2,3-b]pyridine-2-carboxamide]",,"predicted clearance in the rat (CLHEP), in words [3]: high clearance; rCLHEP [3]: 55.2 mL/min/kg; EC50 [7]: > 30000 nM"
Cc1cc(CNC(=O)c2sc3nc(C)c(Cl)c(C)c3c2N)ccn1 [Compound 6],7.21 ± 0.05,
Cc1nc2sc(C(=O)NC(C)c3cccnc3)c(N)c2c(C)c1Cl (centres unmarked) [Compound 8],6.17 ± 0.08,
Cc1nc2sc(C(=O)NC(C)c3ccccn3)c(N)c2c(C)c1Cl (centres unmarked) [Compound 10],5.86 ± 0.07,
Cc1nc2sc(C(=O)NCCc3ccncc3)c(N)c2c(C)c1Cl [Compound 11],6.89 ± 0.09,
Cc1nc2sc(C(=O)NCCc3ccccn3)c(N)c2c(C)c1Cl [Compound 13],6.07 ± 0.06,
Cc1nc2sc(C(=O)NCc3ccncn3)c(N)c2c(C)c1Cl [Compound 15],6.57 ± 0.06,
Cc1nc2sc(C(=O)NCc3ccnnc3)c(N)c2c(C)c1Cl [Compound 17],6.49 ± 0.08,
Cc1nc2sc(C(=O)NCc3ccc4c(c3)OCO4)c(N)c2c(C)c1Cl [Compound 18],7.09 ± 0.08,
Cc1nc2sc(C(=O)NCc3ccccc3)c(N)c2c(C)c1Cl [Compound 19],6.97 ± 0.05,
Cc1nc2sc(C(=O)NCc3ccc(F)c(F)c3)c(N)c2c(C)c1Cl [Compound 20],6.81 ± 0.28,
Cc1nc2sc(C(=O)NCc3ccccc3Cl)c(N)c2c(C)c1Cl [Compound 21],6.81 ± 0.07,
Cc1ccc(CNC(=O)c2sc3nc(C)c(Cl)c(C)c3c2N)cc1 [Compound 22],6.98 ± 0.10,
Cc1nc2sc(C(=O)NCc3ccc(Cl)cc3)c(N)c2c(C)c1Cl [Compound 23],6.75 ± 0.14,
Cc1nc2sc(C(=O)NCc3nccs3)c(N)c2c(C)c1Cl [Compound 24],6.60 ± 0.07,
Cc1nc2sc(C(=O)NCc3ccc(C(F)(F)F)cc3)c(N)c2c(C)c1Cl [Compound 25],5.76 ± 0.27,
Cc1nc2sc(C(=O)NC3CCOC3)c(N)c2c(C)c1Cl (centres unmarked) [Compound 29],7.28 ± 0.07,
Cc1nc2sc(C(=O)NC3COC3)c(N)c2c(C)c1Cl [Compound 30],5.70 ± 0.24,
Cc1nc2sc(C(=O)NC(C)C)c(N)c2c(C)c1Cl [Compound 31],6.83 ± 0.06,
Cc1nc2sc(C(=O)NC3CCCCC3)c(N)c2c(C)c1Cl [Compound 32],6.65 ± 0.03,
Cc1nc2sc(C(=O)NC(C)(C)C)c(N)c2c(C)c1Cl [Compound 34],6.51 ± 0.05,
Cc1nc2sc(C(=O)NCCC3CCCN3C)c(N)c2c(C)c1Cl (centres unmarked) [Compound 36],6.03 ± 0.07,
COc1nc2sc(C(=O)NC3CC3)c(N)c2c(C)c1Cl [LY2033298],,"EC50 ([8]; read-out: human M4 potency, human receptor): 65 nM; EC50 [9]: 629 nM"
COc1ccc(C)c2sc(NC(=O)c3ccncc3)nc12 [ML293],,"EC50 ([8]; read-out: hM4 potency, previously reported probe, ref 9d): 1300 nM"
